Data taken from the supplement of paper PMC11451515.

Legend:
Conditions in all cases: 48 h
SEM cells [1] = experiment: cell viability relative to DMSO control; higher = less cytotoxic
How it was run: (§1)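 Library compounds in DMSO were pin-dosed in an 11-point threefold series (47 μM to 0.79 nM) onto leukemia cells in 1536-well plates (5 μl). Plates held 500 cells/well of NOMO1 or SEM or 1000 cells/well of P12-Ichikawa, each adapted for at least four passages in each medium. Luminescence was read with CellTiter-Glo One after 48 h at 37°C. Viability means the per-plate percentage relative to DMSO wells, using cell-free wells as background.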

SEM cells [2] = experiment: AUC of viability dose-response curve (% viability x log10 dose units); higher = less sensitive
How it was run: (§2)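 Area under the curve was integrated by trapezoidal rule from a log-logistic fit of normalised viability, with curves exceeding full viability scaled and quality-control failures removed. The fit had four parameters over log10 doses. Viability came from CellTiter-Glo One luminescence, normalised per plate to DMSO and cell-free wells, after leukemia cells adapted to each medium (500 or 1000 cells/well, 1536-well plates) were exposed to library compounds in DMSO for 48 h at 37°C. The 11 threefold doses ran from 47 μM to 0.79 nM.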

NOMO1 [3] = experiment: as above
How it was run: as §2

P12-Ichikawa [4] = experiment: as above
How it was run: as §2

P12-Ichikawa [5] = experiment: cell viability relative to DMSO control; higher = less cytotoxic
How it was run: as §1

NOMO1 [6] = experiment: as above
How it was run: as §1

Cc1cccc(CN2CCN(C(c3ccccc3)c3ccc(Cl)cc3)CC2)c1 (centres undefined)
SEM cells [1], RPMI 5 mM glucose + 10% dialyzed FBS
Conditions	cell viability [%]
0.000781 µM	144
0.00234 µM	121
0.00702 µM	122
0.0211 µM	130
0.0632 µM	45.3
0.19 µM	104
0.569 µM	135
1.71 µM	126
5.12 µM	82.2
15.4 µM	121
46.1 µM	113

AUC of viability dose-response curve
Conditions	NOMO1 [3]	P12-Ichikawa [4]	SEM cells [2]
HPLM + 10% dialyzed FBS	464	460	436
RPMI 5 mM glucose + 10% FBS	451	429	444
RPMI 5 mM glucose + 10% dialyzed FBS	460	456	443

CC(C)N(CC[C@H](c1ccccc1)c1cc(CO)ccc1O)C(C)C
cell viability [%], HPLM + 10% dialyzed FBS
Conditions	P12-Ichikawa [5]	SEM cells [1]
0.000781 µM	127	106
0.00234 µM	123	118
0.00702 µM	120	125
0.0211 µM	126	141
0.0632 µM	139	131
0.19 µM	137	139
0.569 µM	140	129
1.71 µM	138	134
5.12 µM	129	151
15.4 µM	128	135
46.1 µM	135	119

AUC of viability dose-response curve
Conditions	NOMO1 [3]	P12-Ichikawa [4]	SEM cells [2]
HPLM + 10% dialyzed FBS	455	464	462
RPMI 5 mM glucose + 10% FBS	468	461	473
RPMI 5 mM glucose + 10% dialyzed FBS	462	466	461

ClC1=CC\2=C(NC(=O)\C(=C2N[C@@H]3CN4CCC3CC4)C5=NC6=C([NH]5)C=CC=C6)C=C1
cell viability [%]
Conditions	NOMO1 [6]	P12-Ichikawa [5]	SEM cells [1]
HPLM + 10% dialyzed FBS, 0.000781 µM	121	110	116
HPLM + 10% dialyzed FBS, 0.00234 µM	123	117	98.7
HPLM + 10% dialyzed FBS, 0.00702 µM	121	112	102
HPLM + 10% dialyzed FBS, 0.0211 µM	123	113	89.2
HPLM + 10% dialyzed FBS, 0.0632 µM	129	112	53.3
HPLM + 10% dialyzed FBS, 0.19 µM	49.3	104	27.7
HPLM + 10% dialyzed FBS, 0.569 µM	36.5	56.8	24.2
HPLM + 10% dialyzed FBS, 1.71 µM	35.6	11.9	21
HPLM + 10% dialyzed FBS, 5.12 µM	32.3	8.98	8.58
HPLM + 10% dialyzed FBS, 15.4 µM	28.4	10.4	3.33
HPLM + 10% dialyzed FBS, 46.1 µM	17.3	18.9	5.63
RPMI 5 mM glucose + 10% FBS, 0.000781 µM	113	102	95.8
RPMI 5 mM glucose + 10% FBS, 0.00234 µM	120	120	87.5
RPMI 5 mM glucose + 10% FBS, 0.00702 µM	123	113	83.9
RPMI 5 mM glucose + 10% FBS, 0.0211 µM	110	120	71
RPMI 5 mM glucose + 10% FBS, 0.0632 µM	103	122	67.4
RPMI 5 mM glucose + 10% FBS, 0.19 µM	46.4	55.9	22.8
RPMI 5 mM glucose + 10% FBS, 0.569 µM	23.4	19.6	16.2
RPMI 5 mM glucose + 10% FBS, 1.71 µM	17.5	13.1	11.2
RPMI 5 mM glucose + 10% FBS, 5.12 µM	18	11	6.87
RPMI 5 mM glucose + 10% FBS, 15.4 µM	12.4	9.4	2.16
RPMI 5 mM glucose + 10% FBS, 46.1 µM	13.4	14.9	2.19
RPMI 5 mM glucose + 10% dialyzed FBS, 0.000781 µM	101	116	99.5
RPMI 5 mM glucose + 10% dialyzed FBS, 0.00234 µM	105	122	108
RPMI 5 mM glucose + 10% dialyzed FBS, 0.00702 µM	113	119	98
RPMI 5 mM glucose + 10% dialyzed FBS, 0.0211 µM	108	112	86.8
RPMI 5 mM glucose + 10% dialyzed FBS, 0.0632 µM	117	116	63.2
RPMI 5 mM glucose + 10% dialyzed FBS, 0.19 µM	44	95.8	25.4
RPMI 5 mM glucose + 10% dialyzed FBS, 0.569 µM	23.7	45.1	19.1
RPMI 5 mM glucose + 10% dialyzed FBS, 1.71 µM	20.4	14	15
RPMI 5 mM glucose + 10% dialyzed FBS, 5.12 µM	25.2	12.5	8.88
RPMI 5 mM glucose + 10% dialyzed FBS, 15.4 µM	18.6	12.4	2.81
RPMI 5 mM glucose + 10% dialyzed FBS, 46.1 µM	18.2	16.4	3.39

AUC of viability dose-response curve
Conditions	NOMO1 [3]	P12-Ichikawa [4]	SEM cells [2]
HPLM + 10% dialyzed FBS	286	302	211
RPMI 5 mM glucose + 10% FBS	257	263	200
RPMI 5 mM glucose + 10% dialyzed FBS	276	291	218
